Assay results: ChEMBL document CHEMBL1154171 (J Med Chem, 2009)
Blank lines part the entries; values can stand above or below the compound they belong to. Active and inactive are the calls of the source. The calls are words filed in the database; no cut-off is given here.

Key:
[1] = target: Cyclin-dependent kinase 2/cyclin E (Homo sapiens, UniProt P24941); assay: Inhibition of CDK2/Cyclin E after 60 mins by fluorescence electrophoresis; assay type: protein-complex assay
[2] = target: Insulin-like growth factor 1 receptor (Homo sapiens, UniProt P08069); assay: Inhibition of IGF1R after 60 mins by fluorescence electrophoresis
[3] = Antitumor activity against mouse Sal cells xenografted in BALB/c mouse assessed as tumor growth inhibition at 6 to 25 mg/kg, po BID administered 8 hrs apart measured within 5 days; assay type: functional; details: dose mg/kg 6-25
Mus musculus [4] = assay: Toxicity in BALB/c mouse xenografted with mouse Sal cells assessed as change in body weight at 25 mg/kg, po BID administered 8 hrs apart measured within 5 days relative to control; assay type: organism-based; parameters: dose 25 mg/kg, route oral; details: in vivo
[5] = Antitumor activity against mouse Sal cells xenografted in po dosed BALB/c mouse assessed as minimum effective dose required for complete tumor growth inhibition administered BID 8 hrs apart measured within 5 days; assay type: functional; details: read-out: MED
cells = details: Mus musculus, Sal
[6] = Plasma protein binding in mouse; assay type: ADME, cell-free; details: read-out: PPB (converted)
[7] = Bioavailability in iv dosed rat; assay type: ADME, organism-based; details: in vivo
[8] = In vivo antitumor activity against human Rh41 cells assessed as tumor growth inhibition at 12.5 mg/kg BID for 14 consecutive days measured on day 60 post tumor implantation; assay type: functional; details: Rh41, 1440 h, read-out: TGI
[9] = Total clearance in iv dosed dog; assay type: ADME, organism-based, Canis lupus familiaris; details: in vivo
[10] = Total clearance in iv dosed mouse; assay type: ADME, organism-based; details: in vivo
[11] = target: High affinity nerve growth factor receptor (Homo sapiens) (UniProt P04629); assay: Inhibition of TrkA
Mus musculus [12] = assay: Inhibition of Akt phosphorylation in po dosed BALB/c mouse xenografted with mouse Sal cells at 3.125 to 12.5 mg/kg, po BID for 4 days measured 2 hrs after final dose on day 5 by Western blot analysis; assay type: functional, organism-based
[13] = target: Aurora kinase B (Homo sapiens) (UniProt Q96GD4); assay: Inhibition of Aurora B
[14] = target: BDNF/NT-3 growth factors receptor (Homo sapiens) (UniProt Q16620); assay: Inhibition of TrkB
[15] = Total clearance in iv dosed monkey; assay type: ADME, organism-based, Macaca mulatta; details: rhesus monkey, in vivo
[16] = Bioavailability in iv dosed monkey; assay type: ADME, organism-based, Macaca mulatta; details: rhesus monkey, in vivo
[17] = Total clearance in iv dosed rat; assay type: ADME, organism-based; details: in vivo
[18] = Permeability across human Caco-2 cells; assay type: ADME, cell-based; details: read-out: permeability
[19] = target: Insulin receptor (Mus musculus) (UniProt P15208); assay: Inhibition of insulin receptor phosphorylation in mouse Sal cells at 0.003 to 1 uM by Western blotting; assay type: cell-based
[20] = Bioavailability in iv dosed dog; assay type: ADME, organism-based, Canis lupus familiaris; details: in vivo
[21] = Antitumor activity against mouse Sal cells xenografted in BALB/c mouse assessed as tumor growth inhibition at 12.5 mg/kg, po BID for 4 days measured 2 hrs after final dose on day 5; assay type: functional; details: read-out: TGI
Mus musculus [22] = assay: Toxicity in BALB/c mouse xenografted with mouse Sal cells assessed as body weight loss at 25 mg/kg, po BID administered 8 hrs apart for 4 consecutive days measured within 5 days; assay type: organism-based; parameters: dose 25 mg/kg, route oral; details: in vivo
Cytochrome P450 2C19 = Cytochrome P450 2C19 (Homo sapiens, UniProt P33261); assay: Inhibition of CYP2C19; assay type: ADME
[23] = Antitumor activity against mouse Sal cells xenografted in BALB/c mouse assessed as tumor growth inhibition at 6.25 mg/kg, po BID for 4 days measured 2 hrs after final dose on day 5; assay type: functional; details: read-out: TGI
Cytochrome P450 2D6 = Cytochrome P450 2D6 (Homo sapiens, UniProt P10635); assay: Inhibition of CYP2D6; assay type: ADME
[24] = Permeability by PAMPA; assay type: ADME; details: read-out: permeability
[25] = target: RAC-alpha serine/threonine-protein kinase (Mus musculus, UniProt P31750); assay: Inhibition of Akt phosphorylation in mouse Sal cells by Western blotting; assay type: cell-based
[26] = target: Macrophage-stimulating protein receptor (Homo sapiens) (UniProt Q04912); assay: Inhibition of Ron
[27] = Antitumor activity against mouse Sal cells xenografted in BALB/c mouse assessed as tumor growth inhibition at 3.125 mg/kg, po BID for 4 days measured 2 hrs after final dose on day 5; assay type: functional; details: read-out: TGI
Cytochrome P450 1A2 = Cytochrome P450 1A2 (Homo sapiens, UniProt P05177); assay: Inhibition of CYP1A2; assay type: ADME
[28] = Bioavailability in iv dosed mouse; assay type: ADME, organism-based; details: in vivo
Cytochrome P450 2C9 = Cytochrome P450 2C9 (Homo sapiens, UniProt P11712); assay: Inhibition of CYP2C9; assay type: ADME
Mus musculus [29] = assay: Inhibition of IGF1R phosphorylation in po dosed BALB/c mouse xenografted with mouse Sal cells at 3.125 to 12.5 mg/kg, po BID for 4 days measured 2 hrs after final dose on day 5 by Western blot analysis; assay type: functional, organism-based

Sequence of Cytochrome P450 2D6 (P10635 whole entry): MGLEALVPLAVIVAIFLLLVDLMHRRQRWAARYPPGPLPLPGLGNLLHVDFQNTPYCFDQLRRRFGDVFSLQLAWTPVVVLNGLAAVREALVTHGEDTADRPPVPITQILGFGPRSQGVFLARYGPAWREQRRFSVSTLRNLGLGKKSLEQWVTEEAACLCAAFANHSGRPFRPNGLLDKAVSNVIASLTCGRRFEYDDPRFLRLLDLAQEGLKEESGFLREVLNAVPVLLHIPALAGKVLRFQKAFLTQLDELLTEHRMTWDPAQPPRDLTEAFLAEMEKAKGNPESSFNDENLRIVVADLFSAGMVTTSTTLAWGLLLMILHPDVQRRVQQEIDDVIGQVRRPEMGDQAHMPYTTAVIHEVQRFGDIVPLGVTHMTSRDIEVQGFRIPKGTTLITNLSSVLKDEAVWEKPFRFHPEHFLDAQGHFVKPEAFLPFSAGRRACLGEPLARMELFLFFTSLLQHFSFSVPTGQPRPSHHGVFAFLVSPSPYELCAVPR
Sequence of High affinity nerve growth factor receptor (Homo sapiens) (P04629 33-796 limits assumed): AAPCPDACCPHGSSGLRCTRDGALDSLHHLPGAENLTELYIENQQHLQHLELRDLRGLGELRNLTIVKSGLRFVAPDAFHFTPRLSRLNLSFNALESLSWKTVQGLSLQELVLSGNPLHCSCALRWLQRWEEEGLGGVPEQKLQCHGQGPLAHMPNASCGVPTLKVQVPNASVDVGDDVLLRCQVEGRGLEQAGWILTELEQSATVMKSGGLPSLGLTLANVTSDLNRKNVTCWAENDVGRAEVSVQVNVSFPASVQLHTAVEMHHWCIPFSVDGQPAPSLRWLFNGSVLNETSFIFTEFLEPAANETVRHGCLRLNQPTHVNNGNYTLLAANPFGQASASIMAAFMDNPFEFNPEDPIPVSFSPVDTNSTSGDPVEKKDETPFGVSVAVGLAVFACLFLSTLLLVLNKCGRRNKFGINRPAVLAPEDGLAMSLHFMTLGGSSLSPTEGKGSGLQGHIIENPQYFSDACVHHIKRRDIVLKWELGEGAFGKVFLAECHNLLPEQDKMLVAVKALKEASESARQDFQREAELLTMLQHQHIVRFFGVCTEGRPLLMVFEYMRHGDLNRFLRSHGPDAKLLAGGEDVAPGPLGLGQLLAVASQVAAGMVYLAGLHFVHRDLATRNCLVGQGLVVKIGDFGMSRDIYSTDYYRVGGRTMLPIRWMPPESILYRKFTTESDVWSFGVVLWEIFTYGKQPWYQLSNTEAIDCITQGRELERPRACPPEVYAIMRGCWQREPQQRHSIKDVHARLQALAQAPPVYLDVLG
Sequence of Macrophage-stimulating protein receptor (Homo sapiens) (Q04912 25-304 limits assumed): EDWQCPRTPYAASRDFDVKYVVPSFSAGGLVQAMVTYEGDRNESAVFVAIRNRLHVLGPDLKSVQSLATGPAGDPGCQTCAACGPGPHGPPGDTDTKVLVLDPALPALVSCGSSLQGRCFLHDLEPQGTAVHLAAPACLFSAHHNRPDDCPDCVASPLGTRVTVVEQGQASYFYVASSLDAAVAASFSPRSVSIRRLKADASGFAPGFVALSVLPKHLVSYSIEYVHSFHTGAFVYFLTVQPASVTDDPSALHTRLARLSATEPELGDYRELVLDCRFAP
Sequence of Macrophage-stimulating protein receptor (Homo sapiens) (Q04912 310-1400 limits assumed): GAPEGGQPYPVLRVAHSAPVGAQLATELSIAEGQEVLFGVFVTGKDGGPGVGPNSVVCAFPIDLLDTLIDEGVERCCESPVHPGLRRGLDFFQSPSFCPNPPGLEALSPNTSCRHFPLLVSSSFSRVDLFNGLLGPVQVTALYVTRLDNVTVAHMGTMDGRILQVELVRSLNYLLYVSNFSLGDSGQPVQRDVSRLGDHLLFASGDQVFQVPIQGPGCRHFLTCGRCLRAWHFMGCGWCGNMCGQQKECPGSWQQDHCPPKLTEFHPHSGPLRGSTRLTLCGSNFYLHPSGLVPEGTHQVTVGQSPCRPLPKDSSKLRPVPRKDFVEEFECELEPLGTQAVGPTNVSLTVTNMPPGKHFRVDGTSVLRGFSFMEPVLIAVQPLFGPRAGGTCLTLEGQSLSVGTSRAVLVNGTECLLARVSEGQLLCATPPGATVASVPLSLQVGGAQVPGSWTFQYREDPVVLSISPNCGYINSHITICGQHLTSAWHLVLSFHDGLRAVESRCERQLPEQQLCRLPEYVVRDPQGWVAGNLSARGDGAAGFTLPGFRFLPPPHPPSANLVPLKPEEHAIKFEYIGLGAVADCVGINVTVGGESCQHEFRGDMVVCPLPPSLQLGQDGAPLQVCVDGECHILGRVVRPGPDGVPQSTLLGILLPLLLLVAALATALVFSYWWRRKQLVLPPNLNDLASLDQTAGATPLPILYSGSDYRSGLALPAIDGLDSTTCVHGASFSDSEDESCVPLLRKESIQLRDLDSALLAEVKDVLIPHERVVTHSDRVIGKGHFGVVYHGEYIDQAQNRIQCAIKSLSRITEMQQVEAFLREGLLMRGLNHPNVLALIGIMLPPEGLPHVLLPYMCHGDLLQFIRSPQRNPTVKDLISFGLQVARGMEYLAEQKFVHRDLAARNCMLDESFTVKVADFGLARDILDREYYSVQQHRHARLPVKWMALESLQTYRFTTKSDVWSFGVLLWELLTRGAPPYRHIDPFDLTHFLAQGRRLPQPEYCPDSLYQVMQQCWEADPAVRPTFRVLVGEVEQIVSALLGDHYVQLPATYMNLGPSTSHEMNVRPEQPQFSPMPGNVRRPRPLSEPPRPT
Sequence of Cytochrome P450 1A2 (P05177 whole entry): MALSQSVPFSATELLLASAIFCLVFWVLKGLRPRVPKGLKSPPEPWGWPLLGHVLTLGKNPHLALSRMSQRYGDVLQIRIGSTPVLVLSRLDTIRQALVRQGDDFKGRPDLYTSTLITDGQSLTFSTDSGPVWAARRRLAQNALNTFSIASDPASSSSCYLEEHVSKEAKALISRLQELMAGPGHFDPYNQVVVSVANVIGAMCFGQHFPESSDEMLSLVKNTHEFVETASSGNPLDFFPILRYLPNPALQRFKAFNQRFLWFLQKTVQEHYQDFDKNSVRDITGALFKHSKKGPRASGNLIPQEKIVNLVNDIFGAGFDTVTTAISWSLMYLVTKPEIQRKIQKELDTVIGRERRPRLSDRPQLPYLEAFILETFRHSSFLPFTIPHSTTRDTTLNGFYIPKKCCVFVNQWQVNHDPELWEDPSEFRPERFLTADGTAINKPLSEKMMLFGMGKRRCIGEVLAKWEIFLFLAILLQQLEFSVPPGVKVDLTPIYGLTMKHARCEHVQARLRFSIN
Sequence of Insulin-like growth factor 1 receptor (P08069 31-736 limits assumed): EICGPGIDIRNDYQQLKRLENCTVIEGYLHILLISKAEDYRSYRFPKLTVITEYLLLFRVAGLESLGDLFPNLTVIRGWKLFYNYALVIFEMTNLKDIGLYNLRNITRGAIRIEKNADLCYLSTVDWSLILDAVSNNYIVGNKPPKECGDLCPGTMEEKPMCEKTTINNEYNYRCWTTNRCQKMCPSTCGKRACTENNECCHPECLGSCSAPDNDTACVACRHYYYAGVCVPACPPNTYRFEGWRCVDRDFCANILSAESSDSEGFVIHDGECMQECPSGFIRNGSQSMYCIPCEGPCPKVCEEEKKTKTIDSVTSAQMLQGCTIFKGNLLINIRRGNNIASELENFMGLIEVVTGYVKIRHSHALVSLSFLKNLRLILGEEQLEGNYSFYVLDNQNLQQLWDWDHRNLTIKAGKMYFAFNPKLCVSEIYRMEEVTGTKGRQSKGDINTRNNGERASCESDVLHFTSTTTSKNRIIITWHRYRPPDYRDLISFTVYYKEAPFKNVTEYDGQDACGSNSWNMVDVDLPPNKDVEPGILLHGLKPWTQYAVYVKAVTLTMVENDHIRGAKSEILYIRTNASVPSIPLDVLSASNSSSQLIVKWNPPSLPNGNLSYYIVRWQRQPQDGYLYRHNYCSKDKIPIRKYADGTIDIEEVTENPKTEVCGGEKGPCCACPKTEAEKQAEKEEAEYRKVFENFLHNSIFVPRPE
Sequence of Insulin-like growth factor 1 receptor (P08069 741-1367 limits assumed): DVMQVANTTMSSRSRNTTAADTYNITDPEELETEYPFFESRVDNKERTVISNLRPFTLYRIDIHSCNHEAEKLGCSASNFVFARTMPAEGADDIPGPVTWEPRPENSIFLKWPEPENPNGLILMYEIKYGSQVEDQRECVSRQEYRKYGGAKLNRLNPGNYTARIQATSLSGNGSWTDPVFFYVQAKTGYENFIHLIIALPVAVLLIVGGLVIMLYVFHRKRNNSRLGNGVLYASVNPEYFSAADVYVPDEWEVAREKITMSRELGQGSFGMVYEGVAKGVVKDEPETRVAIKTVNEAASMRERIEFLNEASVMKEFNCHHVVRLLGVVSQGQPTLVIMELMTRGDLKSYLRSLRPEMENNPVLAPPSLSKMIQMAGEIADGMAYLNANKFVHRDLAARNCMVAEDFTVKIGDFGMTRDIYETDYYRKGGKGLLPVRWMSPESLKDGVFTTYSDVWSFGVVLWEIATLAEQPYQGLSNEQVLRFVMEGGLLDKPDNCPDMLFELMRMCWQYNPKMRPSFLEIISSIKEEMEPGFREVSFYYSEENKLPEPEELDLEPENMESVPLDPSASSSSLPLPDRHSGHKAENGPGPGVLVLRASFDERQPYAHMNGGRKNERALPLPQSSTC
Sequence of Aurora kinase B (Homo sapiens) (Q96GD4 whole entry): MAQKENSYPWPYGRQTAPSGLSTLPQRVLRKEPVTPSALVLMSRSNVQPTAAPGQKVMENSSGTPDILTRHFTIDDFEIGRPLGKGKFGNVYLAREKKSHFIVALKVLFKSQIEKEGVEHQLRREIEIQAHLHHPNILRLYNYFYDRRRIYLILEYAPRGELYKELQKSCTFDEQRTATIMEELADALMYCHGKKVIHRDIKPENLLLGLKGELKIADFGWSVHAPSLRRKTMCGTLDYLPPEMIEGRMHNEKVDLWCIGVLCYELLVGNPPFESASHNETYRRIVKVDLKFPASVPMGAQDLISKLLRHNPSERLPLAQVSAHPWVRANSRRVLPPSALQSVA

IC50 [1]: 1430 nM
IC50 [2]: 6 nM
IC50 (cells): 24 nM
SMILES: C[C@@]1(C(=O)Nc2cccnc2)CCCN1c1nc(Nc2cc(C3CC3)[nH]n2)c2cccn2n1
TGI [3]: 76%
Activity (Mus musculus [4]): 1.9 g
minimal effective dose [5]: 25 mg/kg

IC50 [1]: 577 nM
IC50 (cells): 39 nM
SMILES: O=C(Nc1cccnc1)[C@@H]1CCCN1c1nc(Nc2cc(C3CC3)[nH]n2)c2cccn2n1

IC50 [1]: 200 nM
SMILES: CN(C(=O)[C@@H]1CCCN1c1nc(Nc2cc(C3CC3)[nH]n2)c2cccn2n1)c1ccccc1

SMILES: C[C@@]1(C(=O)Nc2cnccn2)CCCN1c1nc(Nc2cc(C3CC3)[nH]n2)c2cccn2n1
TGI [3]: 113%
Activity (Mus musculus [4]): -3.6 g
minimal effective dose [5]: 6.25 mg/kg

IC50 [1]: 1420 nM
IC50 (cells): 426 nM
SMILES: Cc1ccc(NC(=O)[C@@H]2CCCN2c2nc(Nc3cc(C4CC4)[nH]n3)c3cccn3n2)cc1

IC50 [1]: 322 nM
IC50 (cells): 133 nM
SMILES: O=C(Nc1ccccc1)[C@@H]1CCCN1c1nc(Nc2cc(C3CC3)[nH]n2)c2cccn2n1

IC50 [1]: 2 nM
IC50 (cells): 47 nM
SMILES: NC(=O)[C@@H]1CCCN1c1nc(Nc2cc(C3CC3)[nH]n2)c2cccn2n1

IC50 [1]: 24 nM
IC50 (cells): 310 nM
SMILES: NC(=O)[C@H]1CCCN1c1nc(Nc2cc(C3CC3)[nH]n2)c2cccn2n1

SMILES: C[C@@]1(C(=O)Nc2nccs2)CCCN1c1nc(Nc2cc(C3CC3)n[nH]2)c2cccn2n1
TGI [3]: 74%
Activity (Mus musculus [4]): 0.3 g
minimal effective dose [5]: 12.5 mg/kg

IC50 [1]: 40 nM
IC50 (cells): 69 nM
SMILES: O=C(Nc1nccs1)[C@@H]1CCCN1c1nc(Nc2cc(C3CC3)[nH]n2)c2cccn2n1

fraction unbound [6]: 0.015
bioavailability [7]: 30%
clearance [9]: 3.5 mL/min/kg
clearance [10]: 113 mL/min/kg
inhibition [11]: Active
inhibition [13]: Active
inhibition [14]: Active
clearance [15]: 41 mL/min/kg
bioavailability [16]: 8%
clearance [17]: 20 mL/min/kg
Papp [18]: 14.1 ×10⁻⁶ cm/s
Activity [19]: Active
bioavailability [20]: 59%
IC50 (Cytochrome P450 2C19): 11000 nM
IC50 (Cytochrome P450 2D6): > 40000 nM
Papp [24]: 38.7 ×10⁻⁶ cm/s
IC50 [25]: 22 nM
inhibition [26]: Active
IC50 (Cytochrome P450 1A2): > 40000 nM
bioavailability [28]: 6%
IC50 (Cytochrome P450 2C9): 23000 nM
SMILES: C[C@@]1(C(=O)Nc2ccc(F)nc2)CCCN1c1nc(Nc2cc(C3CC3)n[nH]2)c2cccn2n1 [BMS-754807]
inhibition in vivo at 12.5 mg/kg [8]: 115%
inhibition (Mus musculus [12]): Active
TGI [3]: 102%
Activity (Mus musculus [4]): 0.2 g
inhibition in vivo at 12.5 mg/kg [21]: 110%
Activity (Mus musculus [22]): > 10%
inhibition in vivo at 6.25 mg/kg [23]: 107%
inhibition in vivo at 3.125 mg/kg [27]: 80%
minimal effective dose [5]: 6.25 mg/kg
inhibition (Mus musculus [29]): Active
